{"source": "patent US9180155B2", "about": "“Compositions from Nigella sativa” (Bio Nexus, Ltd, priority 2013, dated 2015)", "tested_on": "Caco-2 monolayers", "test": "LPS/H2O2-mediated loss of TEER in Caco-2 monolayers", "assay_type": "cell-based, human", "conditions": "LPS/H2O2 control = 100, 3 h; μg TQ equivalents/mL: Thymoquinone 5.0, NS8 0.11, NS9 0.99, NS10 0.012, NSSpent#2 0.0005; NSSpent#1 5 μg/mL; listed as TQ", "from_the_text": "The protocol for growing and differentiation the human Caco-2 colon andenocarcinoma cells was a modification of Protocol 3 as described by Yamashita et al. [[…]., and Furuyama, Y. 2002) New and better protocols for a short-term Caco-2 cell culture system, J Pharm Sci 91, 669-679]. Caco-2 Human Colon Adenocarcinoma cells were obtained from ATCC (Rockville, Md.; catalog #HTB-37) and maintained in a growth media: DMEM (Dulbecco's Modified Eagles Medium 1×) containing L-glutamine, glucose; Cellgro catalog #35-010CV with the following additions: (1) Penicillin (5,000 IU/mL)/Streptomycin (5,000 μg/mL) Cellgro catalog #30-001C1, (2) 10% FBS-Fetal Bovine Serum, Characterized; Hyclone catalog #SH30071.3, and (3) 1% NEAA-Non Essential Amino Acids; Cellgro catalog #25-025-CI; cells were cultured at 37 C in a humidified air-5% CO2 atmosphere in T175 flasks. BIOCOAT^R HTS Caco-2 Assay System kits (Becton Dickinson, N.J.; catalog #354801) consisting of 24-well fibrillar collagen coated inserts and feeder trays were used in all experiments and plated as follows. Media was removed from the T175 flasks and cells were washed with 10 mLs PBS (phosphate buffered saline 1× without Ca^++, without Mg^++; Cellgro #25-053-CI). […]", "data": [{"smiles": "CC1=CC(=O)C(C(C)C)=CC1=O", "note": "[Thymoquinone, thymoquinone]", "values": [{"measurement": "Relative Loss of TEER", "result": "no effect"}]}]}
